{"source": "patent US7138361B2", "about": "“Herbicidal heterocycles” (E. I. du Pont de Nemours and Company, priority 2000, dated 2006)", "assay_in_all_cases": "Test C preemergence", "format_in_all_cases": "in vivo", "key": {"[1]": {"system": "Nightshade", "conditions": "Rate 500 g/ha, visual evaluation after 12 to 14 days"}, "[2]": {"system": "giant foxtail (Setaria faberii)", "conditions": "for Plant response rating, Foxtail, Giant: scale 0 to 100, 0 no effect, 100 complete control; for Plant response rating (0 to 100), Foxtail, Giant: preemergence, visual evaluation after 12 to 14 days", "summary_of_the_method": "(§1)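 Preemergence: seeds sown then treated. Postemergence: plants 2–18 cm, 1- to 4-leaf. Both with surfactant-containing solvent formulation; visual injury scored 0–100 after 12–14 d.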"}, "[3]": {"system": "morningglory (Ipomoea hederacea)", "conditions": "for Plant response rating, Morningglory: scale 0 to 100, 0 no effect, 100 complete control", "summary_of_the_method": "as §1"}, "[4]": {"system": "velvetleaf (Abutilon theophrasti)", "conditions": "for Plant response rating, Velvetleaf: scale 0 to 100, 0 no effect, 100 complete control", "summary_of_the_method": "as §1"}, "[5]": {"system": "Nightshade", "conditions": "scale 0 to 100, 0 no effect, 100 complete control"}, "[6]": {"system": "corn (Zea mays)", "conditions": "for Plant response rating, Corn: scale 0 to 100, 0 no effect, 100 complete control; for Plant response rating (0 to 100), Corn: preemergence, visual evaluation after 12 to 14 days", "summary_of_the_method": "as §1"}, "[7]": {"system": "common ragweed (Ambrosia elatior)", "conditions": "for Plant response rating, Ragweed, Common: scale 0 to 100, 0 no effect, 100 complete control", "summary_of_the_method": "as §1"}, "[8]": {"system": "kochia (Kochia scoparia)", "conditions": "for Plant response rating, Kochia: scale 0 to 100, 0 no effect, 100 complete control; for Plant response rating (0 to 100), Kochia: preemergence, visual evaluation after 12 to 14 days", "summary_of_the_method": "as §1"}, "[9]": {"system": "Surinam grass (Brachiaria decumbens)", "conditions": "for Plant response rating, Surinam grass: scale 0 to 100, 0 no effect, 100 complete control; for Plant response rating (0 to 100), Surinam grass: preemergence, visual evaluation after 12 to 14 days", "summary_of_the_method": "as §1"}, "[10]": {"system": "woolly cupgrass (Eriochloa villosa)", "conditions": "for Plant response rating, Cupgrass, Woolly: scale 0 to 100, 0 no effect, 100 complete control; for Plant response rating (0 to 100), Cupgrass, Woolly: preemergence, visual evaluation after 12 to 14 days", "summary_of_the_method": "as §1"}, "[11]": {"system": "goosegrass (Eleusine indica)", "conditions": "for Plant response rating, Goosegrass: scale 0 to 100, 0 no effect, 100 complete control; for Plant response rating (0 to 100), Goosegrass: preemergence, visual evaluation after 12 to 14 days", "summary_of_the_method": "as §1"}, "[12]": {"system": "cocklebur (Xanthium strumarium)", "conditions": "for Plant response rating, Cocklebur: scale 0 to 100, 0 no effect, 100 complete control; for Plant response rating (0 to 100), Cocklebur: preemergence, visual evaluation after 12 to 14 days", "summary_of_the_method": "as §1"}, "[13]": {"system": "Sunflower", "conditions": "Rate 125 g/ha; scale 0 to 100, 0 no effect, 100 complete control"}, "[14]": {"system": "yellow nutsedge (Cyperus esculentus)", "conditions": "for Plant response rating, Nutsedge: scale 0 to 100, 0 no effect, 100 complete control", "summary_of_the_method": "as §1"}, "[15]": {"system": "lambsquarters (Chenopodium album)", "conditions": "for Plant response rating, Lambsquarters: scale 0 to 100, 0 no effect, 100 complete control", "summary_of_the_method": "as §1"}, "[16]": {"system": "johnsongrass (Sorghum halepense)", "conditions": "for Plant response rating, Johnsongrass: scale 0 to 100, 0 no effect, 100 complete control; for Plant response rating (0 to 100), Johnsongrass: preemergence, visual evaluation after 12 to 14 days", "summary_of_the_method": "as §1"}, "[17]": {"system": "bermudagrass (Cynodon dactylon)", "conditions": "for Plant response rating, Bermudagrass: scale 0 to 100, 0 no effect, 100 complete control; for Plant response rating (0 to 100 where 0 is no effect and 100 is complete control), Bermudagrass: preemergence, visual evaluation after 12 to 14 days", "summary_of_the_method": "as §1"}, "[18]": {"system": "soybean (Glycine max)", "conditions": "for Plant response rating, Soybean: scale 0 to 100, 0 no effect, 100 complete control", "summary_of_the_method": "as §1"}, "[19]": {"system": "pigweed (Amaranthus retroflexus)", "conditions": "for Plant response rating, Pigweed: scale 0 to 100, 0 no effect, 100 complete control", "summary_of_the_method": "as §1"}, "[20]": {"system": "crabgrass (Digitaria sanguinalis)", "conditions": "for Plant response rating, Crabgrass: scale 0 to 100, 0 no effect, 100 complete control; for Plant response rating (0 to 100), Crabgrass: preemergence, visual evaluation after 12 to 14 days", "summary_of_the_method": "as §1"}, "[21]": {"conditions": "preemergence, Rate 500 g/ha, visual evaluation after 12 to 14 days"}}, "data": [{"compound": "CC(C)(C)c1ccn(C2CCN(c3cccc(OC(F)F)c3)C2=O)n1", "note": "(stereo not drawn) [Compound 76]", "values": [{"measurement": "Plant response rating (0 to 100), Nightshade", "setting": "[1]", "value": 60}, {"measurement": "Plant response rating, Foxtail, Giant", "setting": "[2]; Rate 62 g/ha", "value": 100}, {"measurement": "Plant response rating, Foxtail, Giant", "setting": "[2]; Rate 125 g/ha", "value": 100}, {"measurement": "Plant response rating (0 to 100), Foxtail, Giant", "setting": "[2]; Rate 250 g/ha", "value": 20}, {"measurement": "Plant response rating (0 to 100), Foxtail, Giant", "setting": "[2]; Rate 500 g/ha", "value": 90}, {"measurement": "Plant response rating, Morningglory", "setting": "[3]; Rate 62 g/ha", "value": 10}, {"measurement": "Plant response rating, Morningglory", "setting": "[3]; Rate 125 g/ha", "value": 30}, {"measurement": "Plant response rating (0 to 100), Morningglory", "setting": "[3]; [21]", "value": 30}, {"measurement": "Plant response rating, Morningglory", "setting": "[3]; preemergence, Rate 250 g/ha", "value": 30}, {"measurement": "Plant response rating, Velvetleaf", "setting": "[4]; Rate 125 g/ha", "value": 20}, {"measurement": "Plant response rating (0 to 100), Velvetleaf", "setting": "[4]; [21]", "value": 50}, {"measurement": "Plant response rating, Velvetleaf", "setting": "[4]; preemergence, Rate 250 g/ha", "value": 20}, {"measurement": "Plant response rating, Nightshade", "setting": "[5]; Rate 62 g/ha", "value": 0}, {"measurement": "Plant response rating, Nightshade", "setting": "[5]; Rate 125 g/ha", "value": 30}, {"measurement": "Plant response rating, Nightshade", "setting": "[5]; Rate 250 g/ha", "value": 40}, {"measurement": "Plant response rating, Corn", "setting": "[6]; Rate 62 g/ha", "value": 20}, {"measurement": "Plant response rating, Corn", "setting": "[6]; Rate 125 g/ha", "value": 20}, {"measurement": "Plant response rating (0 to 100), Corn", "setting": "[6]; Rate 250 g/ha", "value": 20}, {"measurement": "Plant response rating (0 to 100), Corn", "setting": "[6]; Rate 500 g/ha", "value": 80}, {"measurement": "Plant response rating, Ragweed, Common", "setting": "[7]; Rate 125 g/ha", "value": 0}, {"measurement": "Plant response rating (0 to 100), Ragweed, Common", "setting": "[7]; [21]", "value": 0}, {"measurement": "Plant response rating, Ragweed, Common", "setting": "[7]; preemergence, Rate 250 g/ha", "value": 0}, {"measurement": "Plant response rating, Kochia", "setting": "[8]; Rate 62 g/ha", "value": 100}, {"measurement": "Plant response rating, Kochia", "setting": "[8]; Rate 125 g/ha", "value": 100}, {"measurement": "Plant response rating (0 to 100), Kochia", "setting": "[8]; Rate 250 g/ha", "value": 100}, {"measurement": "Plant response rating (0 to 100), Kochia", "setting": "[8]; Rate 500 g/ha", "value": 100}, {"measurement": "Plant response rating, Surinam grass", "setting": "[9]; Rate 62 g/ha", "value": 50}, {"measurement": "Plant response rating, Surinam grass", "setting": "[9]; Rate 125 g/ha", "value": 60}, {"measurement": "Plant response rating (0 to 100), Surinam grass", "setting": "[9]; Rate 250 g/ha", "value": 80}, {"measurement": "Plant response rating (0 to 100), Surinam grass", "setting": "[9]; Rate 500 g/ha", "value": 100}, {"measurement": "Plant response rating, Cupgrass, Woolly", "setting": "[10]; Rate 62 g/ha", "value": 50}, {"measurement": "Plant response rating, Cupgrass, Woolly", "setting": "[10]; Rate 125 g/ha", "value": 100}, {"measurement": "Plant response rating (0 to 100), Cupgrass, Woolly", "setting": "[10]; Rate 250 g/ha", "value": 100}, {"measurement": "Plant response rating (0 to 100), Cupgrass, Woolly", "setting": "[10]; Rate 500 g/ha", "value": 100}, {"measurement": "Plant response rating, Goosegrass", "setting": "[11]; Rate 62 g/ha", "value": 100}, {"measurement": "Plant response rating, Goosegrass", "setting": "[11]; Rate 125 g/ha", "value": 100}, {"measurement": "Plant response rating (0 to 100), Goosegrass", "setting": "[11]; Rate 250 g/ha", "value": 100}, {"measurement": "Plant response rating (0 to 100), Goosegrass", "setting": "[11]; Rate 500 g/ha", "value": 100}, {"measurement": "Plant response rating, Cocklebur", "setting": "[12]; Rate 62 g/ha", "value": 0}, {"measurement": "Plant response rating, Cocklebur", "setting": "[12]; Rate 125 g/ha", "value": 0}, {"measurement": "Plant response rating (0 to 100), Cocklebur", "setting": "[12]; Rate 250 g/ha", "value": 20}, {"measurement": "Plant response rating (0 to 100), Cocklebur", "setting": "[12]; Rate 500 g/ha", "value": 20}, {"measurement": "Plant response rating, Sunflower", "setting": "[13]", "value": 20}, {"measurement": "Plant response rating, Nutsedge", "setting": "[14]; Rate 62 g/ha", "value": 0}, {"measurement": "Plant response rating, Nutsedge", "setting": "[14]; Rate 125 g/ha", "value": 0}, {"measurement": "Plant response rating (0 to 100), Nutsedge", "setting": "[14]; [21]", "value": 20}, {"measurement": "Plant response rating, Nutsedge", "setting": "[14]; preemergence, Rate 250 g/ha", "value": 20}, {"measurement": "Plant response rating, Lambsquarters", "setting": "[15]; Rate 62 g/ha", "value": 100}, {"measurement": "Plant response rating, Lambsquarters", "setting": "[15]; Rate 125 g/ha", "value": 100}, {"measurement": "Plant response rating (0 to 100), Lambsquarters", "setting": "[15]; [21]", "value": 100}, {"measurement": "Plant response rating, Lambsquarters", "setting": "[15]; preemergence, Rate 250 g/ha", "value": 100}, {"measurement": "Plant response rating, Johnsongrass", "setting": "[16]; Rate 62 g/ha", "value": 20}, {"measurement": "Plant response rating, Johnsongrass", "setting": "[16]; Rate 125 g/ha", "value": 30}, {"measurement": "Plant response rating (0 to 100), Johnsongrass", "setting": "[16]; Rate 250 g/ha", "value": 40}, {"measurement": "Plant response rating (0 to 100), Johnsongrass", "setting": "[16]; Rate 500 g/ha", "value": 100}, {"measurement": "Plant response rating, Bermudagrass", "setting": "[17]; Rate 62 g/ha", "value": 100}, {"measurement": "Plant response rating, Bermudagrass", "setting": "[17]; Rate 125 g/ha", "value": 100}, {"measurement": "Plant response rating (0 to 100 where 0 is no effect and 100 is complete control), Bermudagrass", "setting": "[17]; Rate 250 g/ha", "value": 100}, {"measurement": "Plant response rating (0 to 100 where 0 is no effect and 100 is complete control), Bermudagrass", "setting": "[17]; Rate 500 g/ha", "value": 100}, {"measurement": "Plant response rating, Soybean", "setting": "[18]; Rate 125 g/ha", "value": 0}, {"measurement": "Plant response rating (0 to 100), Soybean", "setting": "[18]; [21]", "value": 0}, {"measurement": "Plant response rating, Soybean", "setting": "[18]; preemergence, Rate 250 g/ha", "value": 0}, {"measurement": "Plant response rating, Pigweed", "setting": "[19]; Rate 125 g/ha", "value": 100}, {"measurement": "Plant response rating (0 to 100), Pigweed", "setting": "[19]; [21]", "value": 100}, {"measurement": "Plant response rating, Pigweed", "setting": "[19]; preemergence, Rate 250 g/ha", "value": 0}, {"measurement": "Plant response rating, Crabgrass", "setting": "[20]; Rate 62 g/ha", "value": 100}, {"measurement": "Plant response rating, Crabgrass", "setting": "[20]; Rate 125 g/ha", "value": 100}, {"measurement": "Plant response rating (0 to 100), Crabgrass", "setting": "[20]; Rate 250 g/ha", "value": 100}, {"measurement": "Plant response rating (0 to 100), Crabgrass", "setting": "[20]; Rate 500 g/ha", "value": 100}]}]}
